Experiment [1] relates to Plasmodium berghei. The experiment can be described thus: Antimalarial activity against chloroquine-sensitive Plasmodium berghei ANKA infected in Swiss albino mouse assessed as suppression of parasitemia at 8 mg/kg/day, ip measured on day 4 post infection by Giemsa staining relative to control. The experiment is classed as functional. Conditions: route intraperitoneal.
Experiment [2] concerns Plasmodium berghei. The experiment can be described thus: Antimalarial activity against chloroquine-sensitive Plasmodium berghei ANKA infected in ip dosed Swiss albino mouse assessed as suppression of parasitemia measured on day 4 post infection by Giemsa staining. The class given is functional. The settings on record: 96 h.

1 molecule from ChEMBL document CHEMBL2150944, “Antimalarial activity of pyrroloiminoquinones from the Australian marine sponge Zyzzya sp” (J Med Chem, 2012) can be followed below.

A word on the ED50: it is the midpoint of the dose-response relation. On to `CCN(CC)CCCC(C)Nc1ccnc2cc(Cl)ccc12` (configuration not stated) [CHLOROQUINE], for which, in experiment [1], the Activity is 35%. Further, the 50% effective dose (ED50) in experiment [2] was 1.9 mg/kg/day.
